Data as given in patent publication US20060073572A1, “Cytokine structurally related to IL-17” (The Johns Hopkins University, priority 2001, published 2006).
“Also recorded” adds a separate entry of the source.

Legend:
Type in all cases: cell-based, human
ERK1/2 [1] = assay: Western blotting of ERK1/2 phosphorylation in PBECs; details: pre-incubation with 10 μM for 1 hour, then ML-1 for 20 minutes
Experimental: (§1) FIGS. 6A-6D. Kinetic activation of ERK1/2 by ML-1 in PBECs (FIG. 6A) and HUVECs (FIG. 6B). The cells were incubated with or without ML-1 (100 ng/ml) for different time points as indicated. Western blotting analysis was performed by using antibodies against different MAP kinases as described in Example 8. FIGS. 6C and 6D. Effect of PD98059 on ML-1-induced phosphorylation of ERK1/2 in PBECs (FIG. 6C) and HUVECs (FIG. 6D). The cells were preincubated with PD98059 ([…]) or DMSO vehicle control for 1 hour, followed by stimulation of PBECs and HUVECs with medium or ML-1 for 20 minutes or 10 minutes, respectively. The results shown are representative of three separate experiments.
(§2) For analysis of activation of MAP kinases, PBECs were treated with IL-17 (100 ng/ml) for various time periods, with or without the MEK 1/2 inhibitor PD98059 ([…]; Calbiochem, La Jolla, Calif.) (15), the p38 inhibitor SB202190 (0.5-10 μM; ref. 16), or a vehicle control, DMSO (Me2SO) for 1 hour. […] Following the treatment, the cells were washed with ice-cold PBS. Cell pellets were immediately lysed in cold lysis buffer [20 mM Tris (pH 7.4), 4 mM EDTA, 2 mM EGTA, 1 mM PMSF, […] aprotinin, 200 mg/ml leupeptin, 50 mM NaF, 5 mM NaRP2O7, 1 mM Na3VO4, and 1% Nonidet P40; all purchased from Sigma]. Extracts (1×10^6 cell equivalents/lane) were suspended with an equal volume of 2× loading buffer [0.1 M Tris-HCl (pH 6.8)], 4% SDS, 0.005% bromophenol blue, and 20% glycerol) containing 2-ME (0.7 M) and subjected to 4-20% Tris-glycine gel electrophoresis (NOVEX, San Diego, Calif.). Gels were then transferred to PVDF membranes (BIO-RAD, Hercules, Calif.) with a Trans Blot apparatus (NOVEX). The membranes were immersed overnight in This-buffered saline/Tween 20 containing 5% nonfat dry skim milk (Carnation, Los Angeles, Calif.).
(§3) Immunoreactive proteins were detected using antibodies against various kinases and phosphorylated kinases. […] Western blotting detection reagents (Amersham) and Hyper ECL luminescence detection film (Amersham) were used. […]

IL-6 [2] = assay: IL-6 expression in HUVECs (ELISA, RT-PCR)
Experimental: (§4) FIG. 5. Analysis of IL-6 (FIG. 5A) and IL-8 (FIG. 5B) expression in primary bronchial epithelial cells (PBECs) and human umbilical vein endothelial cells (HUVECs) stimulated by ML-1. The IL-6 and IL-8 protein release in the supernatant was determined by ELISA as described in Example 8. The results were expressed as mean+SD (n=6). *p<0.05 was considered significant vs control.
(§5) FIG. 7A-7D. Effect of PD98059 on IL-6 (FIG. 7A) and IL-8 (FIG. 7B) protein production in PBECs and HUVECs. The cells were preincubated with varying concentrations of PD98059, SB202190, or DMSO vehicle control for 1 hour, followed by stimulation with ML-1 (100 ng/ml) for 24 hours. The results are expressed as the mean+SD (n=6). *P<0.05 when compared to cultures without the addition of PD98059. FIGS. 7C and 7D. Semi-quantitative analysis of gene expression for IL-6 (FIG. 7C) and IL-8 (FIG. 7D) by RT-PCR. The cells were preincubated as described above and treated with ML-1 for 4 hours. RT-PCR was performed as described in Example 8. The results shown are representative of three separate experiments.
(§6) Human umbilical vein endothelial cells (HUVECs) were obtained from Clonetics and cultured in endothelial cell growth media (EGM; Clonetics) containing 12 μg/ml bovine brain extract, 10 ng/ml EGF, 1 μg/ml hydrocortisone, 50 μg/ml gentimicin, 50 ng/ml amphotericin B, and 5% FBS amphotericin-B (Clonetics).
(§7) PBECs and HUVECs were treated with ML-1 100 ng/ml of ML-1 for various time points. Total RNA was extracted using RNeasy (Qiagen) from 1×10^6 cells 4 hours after stimulation or exchange of media. […]
(§8) The amplification reaction was performed for 23 cycles with denaturation at 94° C. for 45 seconds, annealing at 56° C. for 45 seconds, and extension at 72° C. for 45 seconds. PCR products were detected by ethidium bromide staining and normalized by the intensity of an amplified housekeeping gene, G3PDH (see above). […] IL-6 and IL-8 protein levels in the collected supernatants were determined with a commercially available ELISA kit (Biosource, Camarillo, Calif.) according to the manufacturer's instructions.

ERK1/2 [3] = assay: Western blotting of ERK1/2 phosphorylation in HUVECs; details: pre-incubation with 10 μM for 1 hour, then ML-1 for 10 minutes
Experimental: as §1, §2, §3

IL-8 [4] = assay: IL-8 expression in PBECs (ELISA, RT-PCR)
Experimental: as §4, §5
(§9) Primary bronchial epithelial cells (PBECs) were purchased from Clonetics (San Diego, Calif.) and cultured in bronchial epithelial basal medium (Clonetics) containing 0.5 ng/ml human recombinant epidermal growth factor (EGF), 52 mg/ml bovine pituitary extract, 0.1 mg/ml retinoic acid, 0.5 mg/ml hydrocortisone, 5 mg/ml insulin, 10 mg/ml transferrin, 0.5 mg/ml epinephrine, 6.5 ng/ml triiodothyronine, […] gentamicin, and 50 pg/ml amphotericin-B (Clonetics). […]
as §8

IL-8 [5] = assay: IL-8 expression in HUVECs (ELISA, RT-PCR)
Experimental: as §4, §5, §6, §7, §8

IL-6 [6] = assay: IL-6 expression in PBECs (ELISA, RT-PCR)
Experimental: as §4, §5, §9, §8

ICAM-1 = ICAM-1 surface protein expression on NHBE cells by flow cytometry; details: 100 ng/ml, 48 hours, mean±SD (n=4)
Experimental: FIG. 4. Effect of ML-1 on ICAM-1 surface expression on NHBE cells by Flow Cytometry. NHBE cells were treated for 48 hours under following conditions: medium only, rIL-17 (100 ng/ml), purified His-tagged protein (Positope, 100 ng/ml), or ML-1 (100 ng/ml) as indicated. The mean fluorescence intensity of ICAM-1 surface expression was measured. The experiment was conducted four times. The results shown are from a representative experiment. * p<0.01.
To determine whether ML-1 is able to induce ICAM-1 expression on NHBE cells, surface expression of ICAM-1 on NHBE cells was measured and the effects of ML-1 and IL-17 were compared.
NHBE cells were treated with IL-17 (100 ng/ml), ML-1 (100 ng/ml), or a control His protein (Positope, 100 ng/ml). The cells were harvested following treatment with 0.1% trypsin-0.02% EDTA at 37° C. for 6 minutes and suspended in PBS containing 2% BSA and 0.02 % sodium azide. One million cells were incubated with a mouse anti-human ICAM-1 monoclonal antibody (R&D Systems, Minneapolis, Minn.) on ice for 30 minutes. […] After three additional washes in PBS, the cells were resuspended in PBS and immediately analyzed with a FACScan flow cytometer (Becton Dickinson, Mountain View, Calif.). […] Indices are expressed as mean±SD (n=4).

IL-8 [7] = assay: IL-8 expression in NHBE cells (RT-PCR and ELISA); details: 100 ng/ml
Source text: FIGS. 3A-3C. FIG. 3A, Expression of ML-1 protein in COS-7 cells. COS-7 cells were transfected with a gene construct containing full-length ML-1 sequence and a tag sequence encoding poly (His) peptide. ML-1-His fusion proteins were purified from supernatants of the transfected cells using a His affinity column, run on an 8-16% SDS-polyacrylamide gel under reducing conditions, and analyzed by Western Blot using anti-His monoclonal antibody. Lane 1 represents a mock-transfected sample. Lane 2 represents an ML-1-transfected sample. The location of a 19.5 kd marker is indicated. FIG. 3B, Effect of ML-1 on IL-8 gene expression. Human primary bronchial epithelial cells (NHBE cells) were treated with different stimuli. The cells were harvested 4 hours after stimulation, and total RNA was extracted and subjected to RT-PCR using IL-8 and G3PDH primers. Lane 1, medium only; lane 2, cells treated with rIL-17 (100 ng/ml); lane 3, cells treated with purified His-tagged protein (Positope, 100 ng/ml); lane 4, cells treated with ML-1 (100 ng/ml). FIG. 3C, Effect of ML-1 on IL-8 protein production. NHBE cells were treated with the same stimuli used in FIG. 3B, and the supernatants were harvested 48 hours after stimulation.
Primary human bronchial epithelial (NHBE) cells were purchased from Clonetics (San Diego, Calif.) and cultured according to the manufacturer's instructions. The cells were treated with IL-17 (100 ng/ml), ML-1 (100 ng/ml), or a control His-tagged protein (Positope, 100 ng/ml; Invitrogen, Carlsbad, Calif.). The affinity-purified control His protein was dissolved in the same buffer as ML-1. Total RNA was extracted using Rneasy (Qiagen, Chatsworth, Calif.) from 1×10^6 cells 4 hours after stimulation or exchange of media. The protocol for cDNA synthesis was that described above. For PCR, the sequences of PCR primers were based on the human IL-8 cDNA sequence. The sequences of PCR primers for IL-8 were: forward, 5′-TCTGCAGCTCTGTGTGAAG-3′ (SEQ ID NO:14) and reverse, 5′-TAATTTCTGTGTTGGCGCA-3′ (SEQ ID NO:15). The amplification reaction was performed for 23 cycles with denaturation at 94° C. for 45 seconds, annealing at 56° C. for 45 seconds, and extension at 72° C. for 45 seconds PCR products were detected by ethidium bromide staining. The expected size for IL-8 was 154 basepairs. IL-8 protein levels in the collected supernatants were determined with a commercially available ELISA kit (Biosource, Camarillo, Calif.) according to the manufacturer's instructions.

[8] = 1 hour preincubation, varying concentrations, ML-1 100 ng/ml 24 hours
[9] = preincubation, ML-1 for 4 hours, semi-quantitative RT-PCR

Compound: COc1cccc(-c2cc(=O)c3ccccc3o2)c1N [PD98059]
- effect on ML-1-induced activation of ERK1/2 (ERK1/2 [1]): diminished
- effect on ML-1-induced IL-6 protein production (IL-6 [2]; [8]): inhibited; also recorded: not completely inhibited
- effect on ML-1-induced IL-6 gene expression (IL-6 [2]; [9]): Decreased levels
- effect on ML-1-induced activation of ERK1/2 (ERK1/2 [3]): diminished
- effect on ML-1-induced IL-8 protein production (IL-8 [4]; [8]): inhibited; also recorded: not completely inhibited
- effect on ML-1-induced IL-8 gene expression (IL-8 [4]; [9]): Decreased levels
- effect on ML-1-induced IL-8 protein production (IL-8 [5]; [8]): inhibited; also recorded: not completely inhibited
- effect on ML-1-induced IL-8 gene expression (IL-8 [5]; [9]): Decreased levels
- effect on ML-1-induced IL-6 protein production (IL-6 [6]; [8]): inhibited; also recorded: not completely inhibited
- effect on ML-1-induced IL-6 gene expression (IL-6 [6]; [9]): Decreased levels

Compound: IL-17: human IL-17, T-cell derived homodimeric cytokine, used as comparator
- ICAM-1 surface expression, mean fluorescence intensity (MFI) (ICAM-1): 10.07±1.22
- IL-8 protein expression (IL-8 [7]; ELISA of supernatants, 48 hours): enhanced
- IL-8 transcript expression (IL-8 [7]; RT-PCR): enhanced
